Assays:
[1] = tested on: liver (LV); experiment: Whole organ transcriptome (GeneChip microarray) of liver 6 h after adjuvant administration: sDEGs, hierarchical clustering; assay type: in vivo, C57BL/6 mice; conditions: liver; on adjuvant group (cluster) in LV: key: G1 (interferon signaling); G2 (metabolism of lipids and lipoproteins); G3 (response to stress); G4 (response to wounding); G5 (phosphate-containing compound metabolic process); G6 (phagosome)
[2] = tested on: spleen (SP); experiment: Whole organ transcriptome (GeneChip microarray) of spleen 6 h after adjuvant administration: sDEGs, hierarchical clustering; assay type: in vivo, C57BL/6 mice; on adjuvant group (cluster) in SP: key: G1 (interferon signaling); G2 (metabolism of lipids and lipoproteins); G3 (response to stress); G4 (response to wounding); G5 (phosphate-containing compound metabolic process); G6 (phagosome)
[3] = tested on: adjuvant-associated biological themes in LV, SP, LN
From the text: A defined sets of genes were selected according to specified criteria (e.g., FC, PA-call, threshold values). Their functional enrichment values were then obtained from TargetMine (Chen, Y. A., Tripathi, L. P. & Mizuguchi, K. PloS one 6, e17844 (2011)) (http://targetmine.mizuguchilab.org/) using the API interface. The following resources were used throughout the analysis via TargetMine Interface (GO, GOSlim, Integrated Pathway, KEGG, Reactome, and the NCI pathway). The Holm-Bonferroni method was used for multiple testing corrections.
Whole organ transcriptome data for each organ from each mouse were analyzed as follows to obtain biological themes for individual samples from each adjuvant-administered group of three mice. […] A set of Pj genes was first defined, where eij/ei(c)>2.0. Biological themes enriched within Pj were then identified using TargetMine (Chen, Y. A. et al., PloS one 6, e17844 (2011)) (http://targetmine.mizuguchilab.org/). Tj denote the resulting list of biological themes, with associated p-values from Fischer's exact test.
Next, the biological themes called by all the individual samples in the group were scored as follows. Having obtained three lists (T1, T2 and T3) for a given experimental condition, a consensus list T of themes was created as T={(t1, p1), (t2, p2), . . . }, where ti is a biological theme that appears in all of T1, T2 and T3, and pi is the smallest of the associated p-values. Only the themes with the p-value of <0.05 were included in T.
To summarize the biological themes in T further, a list of terms considered to be associated with adjuvant activity in general was separately prepared. AT={at1, at2, . . . }, where ati is a pre-selected adjuvant-associated term (e.g., “stress” or “cytokine”). Finally, an enrichment score S for an adjuvant-associated term ati was defined as: S(ati)=Σ−log(pj), where the name of tj in T includes a term ati as a substring and pj is the associated p-value.
This scoring scheme summarizes the relative enrichment of pre-selected adjuvant-associated terms in genes responding to each adjuvant in each organ.

[4] = i.d. administration, fold change <0.667, p<0.01, customized PA call=1, 6 h after adjuvant
[5] = i.d. administration, fold change >1.5, p<0.01, customized PA call=1, 6 h after adjuvant

## Cc1ccc2c(=O)c3cccc(CC(=O)O)c3oc2c1C [DMXAA, 5,6-dimethylxanthenone-4-acetic acid]
[1]; hierarchical clustering
  adjuvant group (cluster) in LV: G1
[1]; [4]
  Number of gene probes with statistically significant changes (sDEGs), LV, Down: 101
[1]; [5]
  Number of gene probes with statistically significant changes (sDEGs), LV, Up: 162
[2]; hierarchical clustering
  adjuvant group (cluster) in SP: G1
[2]; [4]
  Number of gene probes with statistically significant changes (sDEGs), SP, Down: 48
[2]; [5]
  Number of gene probes with statistically significant changes (sDEGs), SP, Up: 121
[3]; LV, ID
  GO annotation: Cytokine-cytokine receptor interaction (Term: cytokine): 0
  GO annotation: Cytokine-cytokine receptor interaction|Endocytosis (Term: cytokine): 15.4
  GO annotation: I-kappaB kinase/NF-kappaB signaling (Term: NF-kappa B signaling pathway): 0
  GO annotation: NF-kappa B signaling pathway (Term: NF-kappa B signaling pathway): 3.77
  GO annotation: TNF signaling pathway (Term: TNF signaling pathway): 10.7
  GO annotation: activation of immune response (Term: immune response): 5.67
  GO annotation: activation of innate immune response (Term: innate immune response): 9.24
  GO annotation: acute inflammatory response (Term: inflammatory response): 0
  GO annotation: adaptive immune response (Term: adaptive immune response): 0
  GO annotation: apoptotic process (Term: apoptosis): 0
  GO annotation: apoptotic signaling pathway (Term: apoptosis): 0
  GO annotation: cell chemotaxis (Term: chemotaxis): 0
  GO annotation: cell death (Term: cell death): 6.04
  GO annotation: cell migration (Term: migration): 0
  GO annotation: cellular response to cytokine stimulus (Term: cytokine): 16.7
  GO annotation: cellular response to interferon-alpha (Term: IFN alpha): 9.3
  GO annotation: cellular response to stress (Term: stress): 0
  GO annotation: chemokine production (Term: chemokine): 0
  GO annotation: chemokine-mediated signaling pathway (Term: chemokine): 0
  GO annotation: chemotaxis (Term: chemotaxis): 0
  GO annotation: cytokine biosynthetic process (Term: cytokine): 0
  GO annotation: cytokine metabolic process (Term: cytokine): 0
  GO annotation: cytokine production (Term: cytokine): 6.98
  GO annotation: cytokine secretion (Term: cytokine): 0
  GO annotation: cytokine-mediated signaling pathway (Term: cytokine): 0
  GO annotation: death (Term: cell death): 0
  GO annotation: defense response (Term: defense response): 48.4
  GO annotation: defense response to Gram-positive bacterium (Term: defense response): 0
  GO annotation: defense response to bacterium (Term: defense response): 0
  GO annotation: defense response to other organism (Term: defense response): 23.6
  GO annotation: defense response to protozoan (Term: defense response): 3.52
  GO annotation: defense response to virus (Term: defense response): 15
  GO annotation: granulocyte chemotaxis (Term: chemotaxis): 0
  GO annotation: granulocyte migration (Term: migration): 0
  GO annotation: immune response (Term: immune response): 25.5
  GO annotation: immune response-activating signal transduction (Term: immune response): 5.98
  GO annotation: immune response-regulating signaling pathway (Term: immune response): 8.39
  GO annotation: inflammatory response (Term: inflammatory response): 0
  GO annotation: innate immune response (Term: innate immune response): 34.9
  GO annotation: innate immune response-activating signal transduction (Term: innate immune response): 7.99
  GO annotation: interferon-alpha production (Term: IFN alpha): 6.81
  GO annotation: intrinsic apoptotic signaling pathway (Term: apoptosis): 0
  GO annotation: leukocyte chemotaxis (Term: chemotaxis): 0
  GO annotation: leukocyte migration (Term: migration): 0
  GO annotation: leukocyte migration involved in inflammatory response (Term: inflammatory response): 0
  GO annotation: lymphocyte chemotaxis (Term: chemotaxis): 0
  GO annotation: lymphocyte migration (Term: migration): 0
  GO annotation: myeloid leukocyte migration (Term: migration): 0
  GO annotation: negative regulation of apoptotic process (Term: apoptosis): 0
  GO annotation: negative regulation of cell death (Term: cell death): 0
  GO annotation: negative regulation of cytokine production (Term: cytokine): 0
  GO annotation: negative regulation of defense response (Term: defense response): 0
  GO annotation: negative regulation of immune response (Term: immune response): 0
  GO annotation: negative regulation of innate immune response (Term: innate immune response): 0
  GO annotation: negative regulation of programmed cell death (Term: cell death): 0
  GO annotation: neutrophil chemotaxis (Term: chemotaxis): 0
  GO annotation: neutrophil migration (Term: migration): 0
  GO annotation: positive regulation of I-kappaB kinase/NF-kappaB signaling (Term: NF-kappa B signaling pathway): 0
  GO annotation: positive regulation of adaptive immune response (Term: adaptive immune response): 0
  GO annotation: positive regulation of apoptotic process (Term: apoptosis): 0
  GO annotation: positive regulation of cell death (Term: cell death): 0
  GO annotation: positive regulation of cell migration (Term: migration): 0
  GO annotation: positive regulation of chemokine production (Term: chemokine): 0
  GO annotation: positive regulation of chemotaxis (Term: chemotaxis): 0
  GO annotation: positive regulation of cytokine biosynthetic process (Term: cytokine): 0
  GO annotation: positive regulation of cytokine production (Term: cytokine): 7.86
  GO annotation: positive regulation of defense response (Term: defense response): 19
  GO annotation: positive regulation of immune response (Term: immune response): 10.2
  GO annotation: positive regulation of inflammatory response (Term: inflammatory response): 0
  GO annotation: positive regulation of innate immune response (Term: innate immune response): 12.4
  GO annotation: positive regulation of interferon-alpha production (Term: IFN alpha): 7.85
  GO annotation: positive regulation of leukocyte chemotaxis (Term: chemotaxis): 0
  GO annotation: positive regulation of leukocyte migration (Term: migration): 0
  GO annotation: positive regulation of programmed cell death (Term: cell death): 0
  GO annotation: positive regulation of response to wounding (Term: wounding): 0
  GO annotation: positive regulation of tumor necrosis factor superfamily cytokine (Term: cytokine): 0
  GO annotation: production of molecular mediator of immune response (Term: immune response): 0
  GO annotation: programmed cell death (Term: cell death): 0
  GO annotation: regulation of I-kappaB kinase/NF-kappaB signaling (Term: NF-kappa B signaling pathway): 0
  GO annotation: regulation of adaptive immune response (Term: adaptive immune response): 0
  GO annotation: regulation of apoptotic process (Term: apoptosis): 0
  GO annotation: regulation of apoptotic signaling pathway (Term: apoptosis): 0
  GO annotation: regulation of cell death (Term: cell death): 0
  GO annotation: regulation of cell migration (Term: migration): 0
  GO annotation: regulation of chemokine production (Term: chemokine): 0
  GO annotation: regulation of chemotaxis (Term: chemotaxis): 0
  GO annotation: regulation of cytokine biosynthetic process (Term: cytokine): 0
  GO annotation: regulation of cytokine production (Term: cytokine): 8.37
  GO annotation: regulation of defense response (Term: defense response): 26.8
  GO annotation: regulation of defense response to virus (Term: defense response): 0
  GO annotation: regulation of defense response to virus by host (Term: defense response): 0
  GO annotation: regulation of immune response (Term: immune response): 12.4
  GO annotation: regulation of inflammatory response (Term: inflammatory response): 0
  GO annotation: regulation of innate immune response (Term: innate immune response): 19.8
  GO annotation: regulation of interferon-alpha production (Term: IFN alpha): 7.3
  GO annotation: regulation of intrinsic apoptotic signaling pathway (Term: apoptosis): 0
  GO annotation: regulation of leukocyte chemotaxis (Term: chemotaxis): 0
  GO annotation: regulation of leukocyte migration (Term: migration): 0
  GO annotation: regulation of programmed cell death (Term: cell death): 0
  GO annotation: regulation of response to stress (Term: stress): 21
  GO annotation: regulation of response to wounding (Term: wounding): 3.49
  GO annotation: regulation of tumor necrosis factor superfamily cytokine production (Term: cytokine): 0
  GO annotation: response to cytokine (Term: cytokine): 26.5
  GO annotation: response to interferon-alpha (Term: IFN alpha): 11.3
  GO annotation: response to stress (Term: stress): 40.4
  GO annotation: response to wounding (Term: wounding): 0
  GO annotation: taxis (Term: chemotaxis): 0
  GO annotation: tumor necrosis factor superfamily cytokine production (Term: cytokine): 0
  IFN beta: cellular response to interferon-beta: 16.7
  IFN beta: interferon-beta production: 0
  IFN beta: positive regulation of interferon-beta production: 5.66
  IFN beta: regulation of interferon-beta production: 3.09
  IFN beta: response to interferon-beta: 17.9
  IFN gamma: cellular response to interferon-gamma: 7.37
  IFN gamma: interferon-gamma production: 0
  IFN gamma: regulation of interferon-gamma production: 0
  IFN gamma: response to interferon-gamma: 10.3
  interleukin-6: interleukin-6 production: 0
  interleukin-6: positive regulation of interleukin-6 production: 0
  interleukin-6: regulation of interleukin-6 production: 0
  interleukin-12: interleukin-12 production: 0
  interleukin-12: positive regulation of interleukin-12 production: 0
  interleukin-12: regulation of interleukin-12 production: 0
[3]; mouse, in vivo
  GO annotation: adaptive immune response based on somatic recombination of immune receptors built from immunoglobulin superfamily domains (Term: adaptive immune response): 0
  GO annotation: regulation of adaptive immune response based on somatic recombination of immune receptors built from immunoglobulin superfamily domains (Term: adaptive immune response): 0

— patent US20230021483A1, “[…] […] METHOD AND CLASSIFICATION OF PHARMACEUTICAL COMPONENTS BY USING TRANSCRIPTOMES” (National Institutes of Biomedical Innovation, Health and …, priority 2016, published 2023)
